Key:
Assay type in all cases: cell-based, human
[1] = test system: KIR2DL2 and KIR2DL4 promoters; assay: Chromatin immunoprecipitation (ChIP) assays; conditions: 5-azaC treated vs untreated, n=3, p<0.03
Description: Chromatin immunoprecipitation (ChIP) assays. Transcription factor binding to KIR2DL2 and KIR2DL4 promoter sequences was determined using mAb to Sp1 (Upstate Biotechnology), Ets1 and AML1 (Abcam) and the ChIP-IT kit with protocols provided by the manufacturer (Active Motif, Carlsbad, Calif.). Briefly, 4.5×10^7 untreated and 5-azaC treated T cells were crosslinked, sonicated, chromatin immunoprecipitated with the relevant mAb, and precipitated DNA amplified by real-time PCR using a Rotor-Gene 3000. Standard curves were determined for each primer set by dilution of the total input 5-azaC treated DNA in a 0.1-100 ng range. The amount of each sequence in the input and precipitated DNA was calculated from the cycle threshold (CT) for each primer set using the standard curves. The primers used were: […]
ChIP assays were then used to compare transcription factor binding to the KIR2DL2 and KIR2DL4 promoters in untreated and 5-azaC treated cells. […] The reason for this is uncertain, but may reflect the structural differences in the KIR2DL2 and KIR2DL4 promoters.

KIR2DL4 = KIR2DL4 transcripts by real-time quantitative RT-PCR; conditions: relative to β-actin, p<0.001 for both
Description: T cell purification and culture. Peripheral blood mononuclear cells (PBMC) were isolated from healthy donors by density gradient centrifugation, stimulated for 18 hours with 1 μg/mlphytohemagglutinin (PHA) (Murex, Norcross, Ga.), then treated or not with 5 μm 5-azacytidine (5-azaC, Sigma, St. Louis, Mo.) for 72 hours as described (6). Total T cells, CD4^+ T cells or CD8′ T cells then were purified using the pan T cell isolation kit II or the CD4^+ and CD8^+ T cell isolation kit II from Miltenyi (Auburn, Calif.). T cells were typically >94% CD3^+ by flow cytometry. Jurkat cells (E6-1) were maintained in culture as described (11). This protocol was approved by the University of Michigan Institutional Review Board.
Real-time quantitative RT-PCR. Total RNA was isolated using the RNeasy Mini Kit (QIAGEN, Valencia, Calif.). Primers were designed to match polymorphic positions unique to KIR2DL2 or KIR2DL4 genes as described by Uhrberg et al. (13). Controls included β-actin primers as described (14). Real-time quantitative RT-PCR was performed with a Rotor-Gene 3000 (Corbett Robotics, San Francisco, Calif.) and QuantiTect SYBR Green RT-PCR kit (QIAGEN) according to manufacturer's instructions. cDNA synthesized from T cells was used to generate standard curves for β-actin, KIR2DL2 and KIR2DL4, and each experiment was repeated at least twice.

KIR2DL4 promoter = KIR2DL4 promoter methylation, bisulfite sequencing and MS-PCR
Description: Bisulfite conversion and DNA sequencing. Genomic DNA was isolated from T cells using FlexiGene DNA Kits (QIAGEN) then treated with sodium bisulfite as described (15). HotStar Taq (QIAGEN) was used for amplification with the following conditions: initial incubation 95° C. 15 min, then 45 cycles 95° C. 30 s, 52° C. 30 s and 72° C. 30 s. PCR products were purified using QIAEXII Gel Extraction Kits (QIAGEN), and cloned using the pGEM-T Easy Vector System (Promega, Madison, Wis.). 10 cloned fragments were sequenced for each sample by the University of Michigan Sequencing Core.
Real-time quantitative methylation specific PCR (MSP). Three real-time MSP assays were developed for detection and quantitation of each KIR gene: one specific for the bisulfite-converted methylated sequence, one for the bisulfite-converted unmethylated sequence, and a loading control comprising primers to an adjacent bisulfite-converted sequence lacking CG pairs. MSP reactions were performed using QuantiTect SYBR Green PCR kits (QIAGEN) according to the manufacture's protocol using […] of each primer, 100 ng converted DNA and the Rotor-Gene 3000. […] Levels of amplified methylated and unmethylated fragments were standardized to the control fragment, and the methylation index calculated as […]

Nc1ncn([C@@H]2O[C@H](CO)[C@@H](O)[C@H]2O)c(=O)n1 [5-azaC, 5-azacytidine]
binding of Sp1, Ets1 and AML1 to both promoters [1]: increases binding of all 3 transcription factors | KIR2DL4 mRNA in CD4+ and CD8+ T cells (KIR2DL4): increase is significant on both subsets | KIR2DL4 promoter methylation pattern, bisulfite sequencing (KIR2DL4 promoter; CD4+ and CD8+ cells, 5-azaC treated vs untreated): generalized demethylation in the treated cells | KIR2DL4 promoter methylation index, MS-PCR (KIR2DL4 promoter; CD4+ and CD8+ subsets, p<0.001): demethylates these regions in all 5 subjects

From patent US20110256121A1, “METHODS AND KITS FOR DIAGNOSING OR MONITORING AUTOIMMUNE AND CHRONIC INFLAMMATORY DISEASES” (THE REGENTS OF THE UNIVERSITY OF MICHIGAN, priority 2008, published 2011)
